Assay results reported in US8324267B2, “Kinase inhibitors and the use thereof” (Forschungzentrum Karlsruhe GmbH, priority 2001, dated 2012).

Columns and labels:
[1] = biological target: VEGFR-3 (Homo sapiens, UniProt P35916); assay: Ligand-induced autophosphorylation in VEGFR-3-expressing PAE cells (immunoprecipitation, Western blot); type: cell-based; conditions: for inhibition of ligand-induced autophosphorylation of VEGFR-3: PAE/VEGFR-3 cells, VEGF-C stimulated, 0.5, 5 or 50 μM, FIG. 1
Description: VEGFR-2- and VEGFR-3-expressing PAE cells (pig aorta endothel cells) were incubated with 0.5 μM, 5 μM or 50 μM of the appropriate test compound. The cells were then stimulated with VEGF (VEGFR-2) or VEGF-C (VEGFR-3) or without growth factor as negative control. The cells were harvested after 15 min and immunoprecipitated with VEGFR-2 or VEGFR-3. The immunoprecipitates were blotted after electrophoresis and investigated with anti-phosphotyrosine antibody. The blots were detached and investigated with VEGFR-2 or VEGFR-3 antibody to check the loading.
PAE/VEGFR-2 or PAE/VEGFR-3 were seeded in 15 cm tissue culture tissues and cultivated to 50% confluence. The cells were then starved in serum-free medium (with 0.2% BSA) for 16-24 h (PAE/VEGFR-3) or 72 h […]. After preincubation with 5 ml of 1 mM serum-free medium (1 mM Na3VO4) and various inhibitor concentrations for 30-60 min, the cells were stimulated at 37° C. for 5 min (VEGFR-3) or 8 min (VEGFR-2). The cells were then rapidly washed twice with ice-cold PBS (with 1 mM Na3VO4) and lysed with ice-cold modified RIPA buffer (30 mM Tris-HCl, pH 7.4, 150 mM NaCl, 1 mM EDTA, 0.5% (v/v) Triton X100, 0.5% (w/v) sodium deoxycholate, 10 mM NaF) freshly prepared with 1 mM PMSF, 0.1 U/ml aprotinin, 10 ng/ml leupeptin and 5 mM Na3VO4. The cells were harvested from the plate with the aid of a rubber policeman and collected in centrifuge tubes on ice. The lysates were solubilized by forcing through a syringe with a 25 G needle, and were centrifuged at 4° C./13 000 rpm for 15 min to remove insoluble constituents.
The clear lysates were incubated with 4 μg of anti-VEGFR-2 (C-1158, Santa Cruz) or […] at 4° C. overnight.
The receptor-antibody complex was precipitated by adding 30 μl of protein A-Sepharose (Amersham)/tube and incubating at 4° C. for a further 2 hours.
The Sepharose were then centrifuged at 4° C. for 1 min and washed three times with cold washing buffer (30 mM Tris-HCl, pH 7.4, 150 mM NaCl, 1 mM EDTA, 0.5% (v/v) Triton X100, 0.5% (w/v) sodium deoxycholate, 10 mM NaF) freshly prepared with 1 mM PMSF, 0.1 U/ml aprotinin, 10 ng/ml leupeptin and 5 mM Na3VO4. The remainder of the washing buffer was removed by aspiration through a syringe provided with a 27 G needle. The Sepharose beads were resuspended in 50 μl of SDS loading buffer, boiled and loaded onto a 6% […] gel. After the electrophoretic fractionation, the proteins were fixed on an appropriate membrane by Western blotting. The blots were investigated first with the aid of an anti-phosphotyrosine antibody (RC20:HRPO, Becton Dickinson) and then the first antibody was removed again in order to investigate the blot for the protein loading with specific anti-receptor antibodies. […]

[2] = system: MT450 rat mammary carcinoma cells; assay: Growth of subcutaneous MT450 mammary carcinomas in Wistar Furth rats; type: in vivo; conditions: MT450 cells s.c., 8 mg/kg/day intraperitoneally in DMSO, FIG. 8
Description: MT450 rat mammary carcinoma cells were injected subcutaneously into Wistar Furth rats. Treatment with the active substance MAZ51 at 8 mg/kg/day in 100% DMSO or solvent control (100% DMSO) was started the day after injection of the tumor cells. MAZ51 or only solvent was injected intraperitoneally each day. Each test group comprised 8 animals. The tumors were measured every 4-5 days.
FIG. 8: Depiction of the tumor volume as a function of the number of days after tumor cell injection depending on treatment of the MT450 tumor cells with MAZ51 and a DMSO solution (negative control).

[3] = system: 1AS cells; assay: Growth of subcutaneous 1AS carcinomas in BDX rats; type: in vivo, rat; conditions: 1AS cells s.c., 4-5 mg/kg each day in DMSO, FIG. 7
Description: 1AS cells (5×10^5) were injected subcutaneously into 2 groups of BDX rats (8 rats per group). One group was subsequently injected with 100 μl of DMSO/animal per day up to the end of the experiment. The other group was injected with 100 μl of MAZ51 (10 mg/ml in DMSO)/animal, equivalent to 4-5 mg/kg, each day. The tumor volume was measured normally measured regularly after the injection of the tumor cells.
FIG. 7: Depiction of the tumor volume as a function of the number of days after tumor cell injection depending on the treatment of the 1AS tumor cells with MAZ51.

Chain of VEGFR-3 (P35916 25-1363): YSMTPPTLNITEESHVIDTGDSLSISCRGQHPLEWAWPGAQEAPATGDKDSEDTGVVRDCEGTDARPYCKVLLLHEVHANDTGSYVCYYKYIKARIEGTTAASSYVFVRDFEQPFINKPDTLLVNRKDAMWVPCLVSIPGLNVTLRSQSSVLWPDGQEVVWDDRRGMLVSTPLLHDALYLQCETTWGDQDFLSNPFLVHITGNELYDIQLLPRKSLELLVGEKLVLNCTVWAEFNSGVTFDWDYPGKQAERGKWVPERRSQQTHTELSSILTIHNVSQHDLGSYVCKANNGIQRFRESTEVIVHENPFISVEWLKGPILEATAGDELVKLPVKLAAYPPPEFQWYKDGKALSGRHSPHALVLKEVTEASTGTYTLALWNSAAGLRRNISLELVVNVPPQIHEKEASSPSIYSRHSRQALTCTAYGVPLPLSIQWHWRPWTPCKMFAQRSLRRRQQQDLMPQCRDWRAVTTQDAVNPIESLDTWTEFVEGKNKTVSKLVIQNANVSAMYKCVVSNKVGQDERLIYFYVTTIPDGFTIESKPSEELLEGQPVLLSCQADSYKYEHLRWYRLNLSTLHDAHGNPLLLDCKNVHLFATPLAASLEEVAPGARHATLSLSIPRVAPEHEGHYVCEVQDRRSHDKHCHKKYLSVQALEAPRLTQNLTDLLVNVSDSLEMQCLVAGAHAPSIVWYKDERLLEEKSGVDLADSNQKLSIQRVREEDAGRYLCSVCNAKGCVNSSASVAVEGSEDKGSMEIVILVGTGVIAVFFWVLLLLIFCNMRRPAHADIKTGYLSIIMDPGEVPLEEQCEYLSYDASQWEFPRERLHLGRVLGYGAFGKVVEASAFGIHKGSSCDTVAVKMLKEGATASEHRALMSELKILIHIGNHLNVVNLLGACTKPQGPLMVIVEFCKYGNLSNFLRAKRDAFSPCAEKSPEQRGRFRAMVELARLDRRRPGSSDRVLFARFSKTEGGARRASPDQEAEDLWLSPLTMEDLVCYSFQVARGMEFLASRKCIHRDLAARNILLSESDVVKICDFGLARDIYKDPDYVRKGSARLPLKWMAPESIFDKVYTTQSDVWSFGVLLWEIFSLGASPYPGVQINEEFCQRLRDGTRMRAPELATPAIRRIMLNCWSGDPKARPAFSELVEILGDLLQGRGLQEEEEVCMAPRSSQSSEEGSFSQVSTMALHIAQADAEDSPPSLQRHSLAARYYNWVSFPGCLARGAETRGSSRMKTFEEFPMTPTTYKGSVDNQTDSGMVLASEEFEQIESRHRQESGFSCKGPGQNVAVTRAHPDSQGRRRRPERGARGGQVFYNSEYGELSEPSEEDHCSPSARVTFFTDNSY

Structure (SMILES) | inhibition of ligand-induced autophosphorylation of VEGFR-3 [1] | inhibition of tumor growth (tumor volume) [2] | selectivity of inhibition of autophosphorylation, VEGFR-3 versus VEGFR-2 ([1]; 5 μM, PAE cells) | inhibition of tumor growth (tumor volume) [3]
O=C1Nc2ccccc2C1=Cc1ccc(O)cc1O [MAE87, 3-(2,4-Dihydroxybenzylidene)-1,3-dihydroindol-2-one] | Inhibit the Ligand-Induced Autophosphorylation |  |  | 
COc1ccc(C=C2C(=O)Nc3ccccc32)cc1F [MAE106, 3-(3-Fluoro-4-methoxybenzylidene)-1,3-dihydroindole-2-one] | Inhibit the Ligand-Induced Autophosphorylation |  |  | 
CN(C)c1ccc(C=C2C(=O)Nc3ccccc32)c2ccccc12 [MAZ51, 3-(4-Dimethylaminonaphthalen-1-ylmethylene)-1,3-dihydroindol-2-one] | Inhibit the Ligand-Induced Autophosphorylation | inhibited in vivo | selectively inhibits VEGFR-3 | considerably inhibited
